Measured values published in patent US7714017B2, “Carboxylic acid peri-substituted bicyclics for occlusive artery disease” (Decode Genetics, EHF, priority 2004, dated 2010).

target: T1, prostanoid EP3 receptors (Homo sapiens, UniProt P43115); assay: binding on prostanoid EP3 receptors (method of Abramovitz et al.); settings: Chart 1, read-out: Activity (EP3 receptor binding IC50 class)
T1 sequence (P43115 1-390): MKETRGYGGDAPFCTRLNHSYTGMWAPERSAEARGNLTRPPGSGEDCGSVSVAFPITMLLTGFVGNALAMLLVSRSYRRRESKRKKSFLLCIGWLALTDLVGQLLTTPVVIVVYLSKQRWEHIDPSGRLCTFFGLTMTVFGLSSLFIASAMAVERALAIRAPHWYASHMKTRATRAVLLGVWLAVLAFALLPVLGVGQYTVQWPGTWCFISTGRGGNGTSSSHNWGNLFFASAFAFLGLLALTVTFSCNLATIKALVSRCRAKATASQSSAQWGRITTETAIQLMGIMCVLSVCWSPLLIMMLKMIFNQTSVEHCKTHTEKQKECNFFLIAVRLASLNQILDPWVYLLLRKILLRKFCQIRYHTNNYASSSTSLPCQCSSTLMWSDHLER
Protocol: (§1) The compounds of the invention were assayed for their binding on prostanoid EP3 receptors according to the method of Abramovitz et al. [Bioch. Biophys. Acta, 1473, 285-293 (2000)]. […] Compounds with IC50<1 μM are shown as +++; compounds with IC50 1-10 μM are shown as ++; and compounds with IC50>10 μM are shown as +.
as §1, with “Acta.” for “Acta,”

SMILES | IC50 [nM]
O=C(O)C=Cc1cccc2c1N(Cc1ccc(Cl)cc1Cl)C(=O)C21OCCO1 [Compound A16] | < 1000
CC(C)c1cn(Cc2ccc(Cl)cc2Cl)c2c(CCC(=O)O)cccc12 [Compound A14] | 1000 to 10000
O=C(O)CCc1cccc2ccn(Cc3ccc4ccccc4c3)c12 [Compound A58, 3-(1-Naphthalen-2-ylmethyl-1H-indol-7-yl)-propionic acid] | < 1000
Cn1cc(/C=C/C(=O)O)c2c(Oc3ccc4ccccc4c3)cccc21 [Compound A44, (E)-3-[1-Methyl-4-(naphthalen-2-yloxy)-1H-indol-3-yl]-acrylic acid] | < 1000
Cn1cc(/C=C/C(=O)O)c2c(Oc3ccc(F)c(F)c3)cccc21 [Compound A42, (E)-3-[4-(3,4-Difluoro-phenoxy)-1-methyl-1H-indol-3-yl]-acrylic acid] | 1000 to 10000
CC12CCCC(/C=C/C(=O)O)=C1N(Cc1ccc(F)c(F)c1)C(=O)C2 (centres unmarked) [Compound A30, (E)-3-[1-(3,4-Difluoro-benzyl)-3a-methyl-2-oxo-2,3,3a,4,5,6-hexahydro-1H-indol-7-yl]-acrylic acid] | 1000 to 10000
Cn1nc(NCC(=O)O)c2c(Oc3ccc4ccccc4c3)cccc21 [Compound A25, [1-Methyl-4-(naphthalen-2-yloxy)-1H-indazol-3-ylamino]-acetic acid] | < 1000
Cn1cc(/C=C/C(=O)O)c2c(Oc3ccc(Cl)c(F)c3)cccc21 [Compound A43, (E)-3-[4-(4-Chloro-3-fluoro-phenoxy)-1-methyl-1H-indol-3-yl]-acrylic acid] | < 1000
Cc1cc2c(=O)n(C)c(=O)n(CCC(=O)O)c2n1Cc1ccc(Cl)cc1Cl [Compound A63, 3-[7-(2,4-Dichloro-benzyl)-3,6-dimethyl-2,4-dioxo-2,3,4,7-tetrahydro-pyrrolo[2,3-d]pyrimidin-1-yl]-propionic acid] | 1000 to 10000
O=C(O)COc1cccc2oc(=O)n(Cc3ccc(Cl)c(Cl)c3)c12 [Compound A06, [3-(3,4-Dichloro-benzyl)-2-oxo-2,3-dihydro-benzooxazol-4-yloxy]-acetic acid] | 1000 to 10000
CC12CCCC(CCC(=O)O)C1N(Cc1ccc(F)c(F)c1)C(=O)C2 (centres unmarked) [Compound A49, 3-[1-(3,4-Difluoro-benzyl)-3a-methyl-2-oxo-octahydro-indol-7-yl]-propionic acid] | 1000 to 10000
COc1cccc(CN2C(=O)CC3(C)CCCC(/C=C/C(=O)O)=C23)c1 (centres unmarked) [Compound A29, (E)-3-[1-(3-Methoxy-benzyl)-3a-methyl-2-oxo-2,3,3a,4,5,6-hexahydro-1H-indol-7-yl]-acrylic acid] | < 1000
O=C(O)/C=C/c1cnn2ccn(Cc3ccc4ccccc4c3)c12 [Compound A02, (E)-3-(1-Naphthalen-2-ylmethyl-1H-imidazo[1,2-b]pyrazol-7-yl)-acrylic acid] | 1000 to 10000
CC12CCCC(/C=C/C(=O)O)=C1N(Cc1ccc3ccccc3c1)C(=O)C2 (centres unmarked) [Compound A24, (E)-3-(3a-Methyl-1-naphthalen-2-ylmethyl-2-oxo-2,3,3a,4,5,6-hexahydro-1H-indol-7-yl)-acrylic acid] | 1000 to 10000
O=C(O)COc1cccc2ncn(Cc3ccc4ccccc4c3)c12 [Compound A22, (3-Naphthalen-2-ylmethyl-3H-benzoimidazol-4-yloxy)-acetic acid] | > 10000
CCOC(=O)C12CCCC(/C=C/C(=O)O)=C1N(Cc1ccc(Cl)cc1Cl)C(=O)C2 (centres unmarked) [Compound A47, 7-((E)-2-Carboxy-vinyl)-1-(2,4-dichloro-benzyl)-2-oxo-1,2,3,4,5,6-hexahydro-indole-3a-carboxylic acid ethyl ester] | < 1000
CC12CCCC(/C=C/C(=O)O)=C1N(Cc1cccc(Cl)c1)C(=O)C2 (centres unmarked) [Compound A35, (E)-3-[1-(3-Chloro-benzyl)-3a-methyl-2-oxo-2,3,3a,4,5,6-hexahydro-1H-indol-7-yl]-acrylic acid] | 1000 to 10000
